In US11015216B2, “Substituted imidazo[1,2-a]pyrazines as luciferase substrates” (PROMEGA CORPORATION, priority 2016, dated 2021):

Columns and labels:
[1] = tested on: luciferase; experiment: Additional luciferase substrate assay, compared to known analogue C-1 (Table 3); format: biochemical; settings: relative to C-1 (=1)
Experimental: (§1) Luminescence Assay Procedure: Each compound to be screened was dissolved in DMSO (5 mM) and then further diluted to 100 uM in NANO-GLOR Luciferase Assay Buffer. Each diluted substrate was then combined in equal volumes with purified NanoLuc® Luciferase diluted into CO2 independent media+10% FBS. Initial light output for each substrate was measured in a GloMax®-Multi+ luminometer three minutes after substrate addition and then at five minute intervals as a means to determine signal half-life.
The compounds of formula (I) were also evaluated for their ability to be luciferase substrates in an additional assay.

[2] = target: NanoLuc® Luciferase (Oplophorus gracilirostris, UniProt Q9GV45, A31E/A60N/A81I/F95D/I117V/K70R/L54V/L99Q/M102K/N193R/P142E/Q151K/Q38R/Q45L/V71I/Y165I); format: biochemical; settings: ratio to coelenterazine (=1); for I (relative light units, ratio in comparison to native coelenterazine): initial light output three minutes after substrate addition; for Half-life (signal half-life, ratio in comparison to native coelenterazine): read at five minute intervals
Experimental: as §1
A subset of the synthesized coelenterazine analogues (compounds of formula (I)) were evaluated for their suitability as luciferase substrates. NANOLUC® luciferase was employed for the screening because it is a small (19 kDa), stable, and particularly bright enzyme.

Sequence of NanoLuc® Luciferase (Q9GV45 other isoform, or with tags, fused parts or gaps with the stated changes): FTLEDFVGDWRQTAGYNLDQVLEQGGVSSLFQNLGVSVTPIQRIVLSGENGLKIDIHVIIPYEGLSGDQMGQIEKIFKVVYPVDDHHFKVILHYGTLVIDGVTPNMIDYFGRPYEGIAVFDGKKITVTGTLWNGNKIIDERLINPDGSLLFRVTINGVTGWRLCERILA

Row | SMILES | RLU (@100 uM) [1] | I (relative light units, ratio in comparison to native coelenterazine) [2] | Half-life (signal half-life, ratio in comparison to native coelenterazine) [2]
1 | O=c1c(Cc2cnns2)nc2c(Cc3ccccc3)[nH]c(-c3ccccc3)cn1-2 [Compound 82] | 0.13 | 5.416 | 1.19
2 | O=c1c(Cc2ccc3ccccc3c2)nc2c(Cc3ccccc3)[nH]c(-c3ccccc3)cn1-2 [Compound 4] | 0.22 | 9.166 | 0.72
3 | O=c1c(Cc2c(F)cc(F)cc2F)nc2c(Cc3ccccc3)[nH]c(-c3ccccc3)cn1-2 [Compound 78] | 0.21 | 8.75 | 0.43
4 | O=c1c(Cc2cnccn2)nc2c(Cc3ccccc3)[nH]c(-c3ccccc3)cn1-2 [Compound 84] | 0.003 |  | 
5 | COc1cc(Cc2nc3c(Cc4ccccc4)[nH]c(-c4ccccc4)cn-3c2=O)ccc1O [Compound 32] | 0.052 |  | 
6 | Nc1ccc(Cc2nc3c(Cc4ccccc4)[nH]c(-c4ccccc4)cn-3c2=O)cc1 [Compound 9] | 0.025 | 1.041 | 0.93
7 | O=c1c(Cc2cn3ccsc3n2)nc2c(Cc3ccccc3)[nH]c(-c3ccccc3)cn1-2 [Compound 80] | 0.052 | 2.166 | 1.62
8 | CC(C)(C)c1ccc(Cc2nc3c(Cc4ccccc4)[nH]c(-c4ccccc4)cn-3c2=O)cc1 [Compound 5] | 0.093 | 3.875 | 0.43
9 | Cn1nc(-c2ccc(Cc3nc4c(Cc5ccccc5)[nH]c(-c5ccccc5)cn-4c3=O)s2)cc1C(F)(F)F [Compound 40] | 0.0042 |  | 
10 | O=c1c(Cc2ccc(F)nc2F)nc2c(Cc3ccccc3)[nH]c(-c3ccccc3)cn1-2 [Compound 65] | 0.26 | 10.833 | 0.62
11 | COc1ccc(Cc2nc3c(Cc4ccccc4)[nH]c(-c4ccccc4)cn-3c2=O)cc1OC [Compound 57] | 0.063 |  | 
12 | COc1cccc(Cc2nc3c(Cc4ccccc4)[nH]c(-c4ccccc4)cn-3c2=O)c1 [Compound 17] | 0.83 |  | 
13 | NCc1cccc(Cc2nc3c(Cc4ccccc4)[nH]c(-c4ccccc4)cn-3c2=O)c1 [Compound 48] | 0.0013 |  | 
14 | O=c1c(Cc2cc(C(F)(F)F)cc(C(F)(F)F)c2)nc2c(Cc3ccccc3)[nH]c(-c3ccccc3)cn1-2 [Compound 44] | 0.019 |  | 
15 | O=c1c(Cc2ccc(C(F)(F)F)o2)nc2c(Cc3ccccc3)[nH]c(-c3ccccc3)cn1-2 [Compound 41] | 0.82 |  | 
16 | O=c1c(Cc2cccc(CO)c2)nc2c(Cc3ccccc3)[nH]c(-c3ccccc3)cn1-2 [Compound 54] | 0.04 |  | 
17 | O=C(O)c1ccc(Cc2nc3c(Cc4ccccc4)[nH]c(-c4ccccc4)cn-3c2=O)cc1 [Compound 10] | 0.0034 | 0.142 | 1.02
18 | O=c1c(Cc2cccnc2F)nc2c(Cc3ccccc3)[nH]c(-c3ccccc3)cn1-2 [Compound 67] | 0.11 | 4.583 | 1.14
19 | O=c1c(Cc2cc3ccccc3s2)nc2c(Cc3ccccc3)[nH]c(-c3ccccc3)cn1-2 [Compound 6] | 0.33 | 13.75 | 0.33

Row | SMILES | RLU (@100 uM) [1] | I (relative light units, ratio in comparison to native coelenterazine) [2] | Half-life (signal half-life, ratio in comparison to native coelenterazine) [2]
20 | COCc1ccc(Cc2nc3c(Cc4ccccc4)[nH]c(-c4ccccc4)cn-3c2=O)s1 [Compound 52] | 0.45 |  | 
21 | O=c1c(Cc2ccc(C3CCCCC3)s2)nc2c(Cc3ccccc3)[nH]c(-c3ccccc3)cn1-2 [Compound 37] | 0.05 |  | 
22 | CCCSc1ncc(Cc2nc3c(Cc4ccccc4)[nH]c(-c4ccccc4)cn-3c2=O)cn1 [Compound 56] | 0.0098 |  | 
23 | O=C(O)c1cccc(Cc2nc3c(Cc4ccccc4)[nH]c(-c4ccccc4)cn-3c2=O)c1 [Compound 47] | 0.013 |  | 
24 | O=c1c(CC2=Cc3ccccc3OC2)nc2c(Cc3ccccc3)[nH]c(-c3ccccc3)cn1-2 [Compound 27] | 0.1 |  | 
25 | CCCCCCCCCCCCc1nc2c(Cc3ccccc3)[nH]c(-c3ccccc3)cn-2c1=O [Compound 35] | 0.0005 |  | 
26 | CC(C)(C)OC(=O)Nc1ccc(Cc2nc3c(Cc4ccccc4)[nH]c(-c4ccccc4)cn-3c2=O)cc1 [Compound 30] | 0.001 |  | 
27 | O=c1c(Cc2ccco2)nc2c(Cc3ccccc3)[nH]c(-c3ccccc3)cn1-2 [Compound C-1, 8-benzyl-2-(furan-2-ylmethyl)-6-phenylimidazo[1,2-a]pyrazin-3(7H)-one, reference compound] | 1 |  | 
28 | COc1ccc(Cc2nc3c(Cc4ccccc4)[nH]c(-c4ccccc4)cn-3c2=O)s1 [Compound 24] | 0.68 |  | 
29 | O=c1c(Cc2cccc3c2oc2ccccc23)nc2c(Cc3ccccc3)[nH]c(-c3ccccc3)cn1-2 [Compound 28] | 0.01 |  | 
30 | O=c1c(Cc2ccncc2)nc2c(Cc3ccccc3)[nH]c(-c3ccccc3)cn1-2 [Compound 36] | 0.0017 |  | 
31 | O=c1c(Cc2ccc(-c3ccccc3)cc2)nc2c(Cc3ccccc3)[nH]c(-c3ccccc3)cn1-2 [Compound 26] | 0.046 |  | 
32 | Cn1c(Cc2nc3c(Cc4ccccc4)[nH]c(-c4ccccc4)cn-3c2=O)cc2sccc21 [Compound 85] | 0.038 |  | 
33 | CN(C)Oc1cccc(Cc2nc3c(Cc4ccccc4)[nH]c(-c4ccccc4)cn-3c2=O)c1 [Compound 60] | 0.00038 |  | 
34 | CC(C)Cc1ccc(Cc2nc3c(Cc4ccccc4)[nH]c(-c4ccccc4)cn-3c2=O)s1 [Compound 39] | 0.29 |  | 
35 | COc1ccc(Cc2nc3c(Cc4ccccc4)[nH]c(-c4ccccc4)cn-3c2=O)cc1F [Compound 21] | 0.32 |  | 
36 | O=c1c(Cc2ccc(-c3cccs3)s2)nc2c(Cc3ccccc3)[nH]c(-c3ccccc3)cn1-2 [Compound 38] | 0.054 |  | 
37 | O=c1c(C/C=C/c2ccccc2)nc2c(Cc3ccccc3)[nH]c(-c3ccccc3)cn1-2 [Compound 29] | 0.13 |  | 
38 | O=c1c(C=Cc2ccccc2)nc2c(Cc3ccccc3)[nH]c(-c3ccccc3)cn1-2 [Compound 86] | 0.0002 |  | 

Row | SMILES | RLU (@100 uM) [1] | I (relative light units, ratio in comparison to native coelenterazine) [2] | Half-life (signal half-life, ratio in comparison to native coelenterazine) [2]
39 | CS(=O)(=O)Nc1cccc(Cc2nc3c(Cc4ccccc4)[nH]c(-c4ccccc4)cn-3c2=O)c1 [Compound 49] | 0.002 |  | 
40 | CN(C)c1cccc(Cc2nc3c(Cc4ccccc4)[nH]c(-c4ccccc4)cn-3c2=O)c1 [Compound 51] | 0.49 |  | 
41 | Cn1nc(C(F)(F)F)c(Cc2nc3c(Cc4ccccc4)[nH]c(-c4ccccc4)cn-3c2=O)c1Cl [Compound 45] | 0.0012 |  | 
42 | COc1cc(Cc2nc3c(Cc4ccccc4)[nH]c(-c4ccccc4)cn-3c2=O)ccc1F [Compound 18] | 0.4 |  | 
43 | CSc1cccc(Cc2nc3c(Cc4ccccc4)[nH]c(-c4ccccc4)cn-3c2=O)c1 [Compound 58] | 0.47 |  | 
44 | CCOP(=O)(OCC)c1nc2c(Cc3ccccc3)[nH]c(-c3ccccc3)cn-2c1=O [Compound 1, diethyl (8-benzyl-3-oxo-6-phenyl-3,7-dihydroimidazo[1,2-a]pyrazin-2-yl)phosphonate] | 0.00048 |  | 
45 | O=c1c(Cc2c(F)c(F)c(F)c(F)c2F)nc2c(Cc3ccccc3)[nH]c(-c3ccccc3)cn1-2 [Compound 43] | 0.052 |  | 
46 | CC(C)(C)OC(=O)Nc1cccc(Cc2nc3c(Cc4ccccc4)[nH]c(-c4ccccc4)cn-3c2=O)c1 [Compound 23] | 0.001 |  | 
47 | C=CCOc1ccc(Cc2nc3c(Cc4ccccc4)[nH]c(-c4ccccc4)cn-3c2=O)cc1OC [Compound 31] | 0.054 |  | 
48 | Cn1cnnc1Sc1ccc(Cc2nc3c(Cc4ccccc4)[nH]c(-c4ccccc4)cn-3c2=O)o1 [Compound 33] | 0.017 |  | 
49 | COCc1cc(Cc2nc3c(Cc4ccccc4)[nH]c(-c4ccccc4)cn-3c2=O)ccc1OC [Compound 50] | 0.023 |  | 
50 | CCOc1cccc(Cc2nc3c(Cc4ccccc4)[nH]c(-c4ccccc4)cn-3c2=O)c1 [Compound 61] | 0.49 |  | 
51 | Oc1ccc(Cc2nc3c(Cc4ccccc4)nc(-c4ccc(O)cc4)cn3c2O)cc1 [coelenterazine, reference compound] |  | 1 | 1
52 | O=c1c(Cc2ccc(-c3ccccn3)s2)nc2c(Cc3ccccc3)[nH]c(-c3ccccc3)cn1-2 [Compound 34] | 0.02 |  | 
53 | COCc1cccc(Cc2nc3c(Cc4ccccc4)[nH]c(-c4ccccc4)cn-3c2=O)c1 [Compound 53] | 0.47 |  | 
54 | O=c1c(Cc2ccc3c(c2)OCO3)nc2c(Cc3ccccc3)[nH]c(-c3ccccc3)cn1-2 [Compound 59] | 0.72 |  | 
55 | COCCOc1cccc(Cc2nc3c(Cc4ccccc4)[nH]c(-c4ccccc4)cn-3c2=O)c1 [Compound 62] | 0.057 |  | 
56 | COCc1ccc(Cc2nc3c(Cc4ccccc4)[nH]c(-c4ccccc4)cn-3c2=O)o1 [Compound 42] | 0.52 |  | 
57 | Nc1cccc(Cc2nc3c(Cc4ccccc4)[nH]c(-c4ccccc4)cn-3c2=O)c1 [Compound 25] | 0.15 |  | 
